From ChEMBL document CHEMBL1201862, “PubChem BioAssay data set” (2004) come the findings set out here.

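Step 1: Grow cells in 96-well plates. Step 2: Expose to compound for 48 hours at 5 concentrations. Step 3: Interpolate endpoints linearly; if unreached, use highest concentration. Here, GI50 denotes the concentration required for 50% inhibition of growth.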 Active and inactive are the calls of the source. Rule as the data show it: active = GI50 up to about 1.1 µM and inactive = higher. Some results are limits rather than exact numbers.

Among the test systems are Malme-3M; SNB-75; SNB-19; MDA-N; SK-MEL-28; SF-268; UACC-62; OVCAR-5; NCI/ADR-RES; MDA-MB-435; NCI-H226; UACC-257; SN12C; A549; OVCAR-4; HCT-15; RXF 393; BT-549; U-251; SW-620.
Test in all cases: DTP human tumour cell line panel, 48 h

Turning to `C[N+](CCCl)(CCCl)Cc1cccc2cccc([N+](=O)[O-])c12`, the GI50 (as a rule, the concentration that inhibits growth by half) in the assay with Malme-3M was 81.1 µM (inactive); with SNB-75 it was > 100 µM (inactive); in the assay on SNB-19, 75.2 µM (inactive); in the assay on MDA-N it was > 100 µM (inactive); in the assay on SK-MEL-28, > 100 µM (inactive); in the assay on SF-268, > 100 µM (inactive). In addition, the GI50 in the assay on UACC-62 is > 100 µM (inactive); in the assay on OVCAR-5, > 100 µM (inactive); in the assay on NCI/ADR-RES it was > 100 µM (inactive); with MDA-MB-435 it was > 100 µM (inactive); with NCI-H226 it was > 100 µM (inactive); with UACC-257, 37.2 µM (inactive). Moreover, the GI50 with SN12C is 45.5 µM (inactive); with A549, 97.3 µM (inactive); with OVCAR-4, 57.7 µM (inactive); with HCT-15 it was greater than 100 µM; with RXF 393 it was > 100 µM (inactive); in the assay with BT-549, > 100 µM (inactive). The GI50 with U-251 and in the assay with SW-620 was > 100 µM (inactive) in each case.

Consider `Cc1ccc(O)c(C(c2cccc(C(c3cc(C)ccc3O)c3cc(C)ccc3O)c2)c2cc(C)ccc2O)c1`, for which the GI50 is 1.87 µM (inactive) in the assay on Malme-3M; 1.93 µM (inactive) in the assay on SNB-75; 1.89 µM (inactive) in the assay with SNB-19; 1.79 µM (inactive) in the assay with MDA-N; 1.83 µM (inactive) in the assay with SK-MEL-28; 1.6 µM (inactive) with SF-268. Also, the GI50 in the assay on UACC-62 was 1.99 µM (inactive); in the assay on OVCAR-5 it was 1.69 µM (inactive); in the assay with NCI/ADR-RES, 3.01 µM (inactive); in the assay on MDA-MB-435, 1.75 µM (inactive); in the assay on NCI-H226 it was 1.77 µM (inactive); in the assay with UACC-257, 1.94 µM (inactive). Moreover, the GI50 in the assay on SN12C is 1.83 µM (inactive); in the assay on A549, 1.97 µM (inactive); in the assay on OVCAR-4 it was 2.22 µM (inactive); in the assay on HCT-15 it was 1.87 µM; in the assay on RXF 393, 1.69 µM (inactive); in the assay on BT-549, 2.43 µM (inactive). The GI50 with U-251 was 1.77 µM (inactive); in the assay on SW-620, 1.66 µM (inactive).

Take `O=C1CSC2(CC(/C=C/c3ccccc3[N+](=O)[O-])=NN2c2cccc(S(=O)(=O)O)c2)N1c1nc2ccccc2s1` (stereo not given): the GI50 was 24.4 µM (inactive) in the assay on Malme-3M; 15.3 µM (inactive) with SNB-75; 15.5 µM (inactive) in the assay on SNB-19; 17.9 µM (inactive) in the assay with MDA-N; 38 µM (inactive) in the assay on SK-MEL-28; 16.8 µM (inactive) with SF-268. The GI50 with UACC-62 was 13.6 µM (inactive); in the assay with OVCAR-5, 19.3 µM (inactive); with NCI/ADR-RES it was 21.5 µM (inactive); with MDA-MB-435 it was 14.8 µM (inactive); with NCI-H226, 16.8 µM (inactive); in the assay with UACC-257 it was 37.2 µM (inactive). Besides, the GI50 is 20.3 µM (inactive) in the assay with SN12C; 18.7 µM (inactive) in the assay on A549; 15.3 µM (inactive) in the assay with OVCAR-4; 17 µM in the assay with HCT-15; 23.8 µM (inactive) in the assay with RXF 393; 17.3 µM (inactive) with BT-549. Further, the GI50 in the assay on U-251 was 14.5 µM (inactive); in the assay with SW-620, 22.6 µM (inactive).

Consider `CCOC(=O)/C=C1/Nc2cc(F)c(F)cc2NC1=O`, for which the GI50 in the assay on Malme-3M, in the assay on SNB-75, in the assay with SNB-19, in the assay on MDA-N, in the assay on SK-MEL-28 and in the assay with SF-268 was > 100 µM (inactive) each time. Also, the GI50 with UACC-62, in the assay on OVCAR-5, in the assay on NCI/ADR-RES, with MDA-MB-435, with NCI-H226 and in the assay on UACC-257 was > 100 µM (inactive) each time. The GI50 in the assay on SN12C was > 100 µM (inactive); in the assay on A549, > 100 µM (inactive); in the assay with OVCAR-4 it was > 100 µM (inactive); with HCT-15, greater than 100 µM; in the assay on RXF 393, > 100 µM (inactive); in the assay with BT-549 it was > 100 µM (inactive). In addition, the GI50 with U-251 and in the assay with SW-620 was > 100 µM (inactive) in each case.
